Measured values taken from patent publication US20050107456A1, “Substituted pyrazolines for use as pesticides” (priority 2002, published 2005).
Read-outs that look alike come from different tables or passages of the source.

What was measured:
[1] = tested on: caterpillars of the army worm (Spodoptera frugiperda); experiment: Spodoptera frugiperda test; type: in vivo; conditions: active compound concentration 500 ppm, after 7 days, dipped cabbage leaves
Description: (§1) Spodoptera Frugiperda Test Solvent: 7 parts by weight of dimethylformamide Emulsifier: 2 parts by weight of alkylaryl polyglycol ether To produce a suitable preparation of active compound, 1 part by weight of active compound is mixed with the stated amounts of solvent and emulsifier, and the concentrate is diluted with emulsifier-containing water to the desired concentration. Cabbage leaves (Brassica oleracea) are treated by being dipped into the preparation of active compound of the desired concentration and are populated with caterpillars of the army worm (Spodoptera frugiperda) while the leaves are still moist. After the desired period of time, the kill in % is determined. 100% means that all caterpillars have been killed; 0% means that none of the caterpillars have been killed.

[2] = logP determination by HPLC on a reversed-phase column (EEC Directive 79/831 Annex V.A8); type: physicochemical; conditions: for chromatographic logP: read-out: logP (pH2)
Description: The logP values given in the Preparation Examples and the tables above are determined in accordance with EEC Directive 79/831 Annex V.A8 by HPLC (High Performance Liquid Chromatography) on a reversed-phase column (C 18). Temperature: 43° C.
The determination is carried out in the acidic range at pH 2.3 using the mobile phases 0.1% aqueous phosphoric acid and acetonitrile; linear gradient from 10% acetonitrile to 90% acetonitrile.
Calibration is carried out using unbranched alkan-2-ones (having 3 to 16 carbon atoms) with known logP values (determination of the logP values by the retention times using linear interpolation between two successive alkanones).

[3] = tested on: larvae of the mustard beetle (Phaedon cochleariae); experiment: Phaedon larvae test; type: in vivo; conditions: active compound concentration 500 ppm, after 7 days, dipped cabbage leaves
Description: as §1, with “Phaedon Larvae Test” for “Spodoptera Frugiperda Test”, “with larvae” for “with caterpillars”, “the mustard beetle (Phaedon cochleariae)” for “the army worm (Spodoptera frugiperda)”, “all beetle larvae” for “all caterpillars”, “the beetle larvae” for “the caterpillars”

[4] = reversed-phase C18 HPLC column, HPLC, reversed-phase C 18, 43° C., acidic range pH 2.3, 0.1% aqueous phosphoric acid/acetonitrile
[5] = HPLC, reversed-phase C 18, 43° C., acidic range pH 2.3, 0.1% aqueous phosphoric acid/acetonitrile

Compound | chromatographic logP [2, 4] | kill in % [1] | also measured
CC(C)(C)c1noc(-c2ccc(NC(=O)N3CC(n4cc(C#N)cn4)C(c4ccc(Cl)cc4)=N3)cc2)n1 (stereo not drawn) [Compound 3, N-[4-(3-tert-butyl[1,2,4]oxadiazol-5-yl)-phenyl]-3-(4-chlorophenyl)-4-(4-cyanopyrazol-1-yl)-4,5-dihydro-1-pyrazolecarbox-amide] | – | 100% | logP (pH2) ([2]; pH 2.3): 4.38
N#Cc1cnn(C2CNN=C2c2ccc(Cl)cc2)c1 (stereo not drawn) [3-(4-chlorophenyl)-4-(4-cyanopyrazol-1-yl)-4,5-dihydro-1H-pyrazole] | 2.11 | – | –
4-(5-tert-butyltetrazol-2-yl)nitrobenzene | – | – | logP (pH2) [2, 5]: 2.20
CC(C)(C)c1nc(-c2ccc(N)cc2)no1 [4-(5-tert-butyl[1,2,4]oxadiazol-3-yl)aniline] | 2.31 | – | –
CC(C)(C)c1noc(-c2ccc(N)cc2)n1 [4-(3-tert-butyl[1,2,4]oxadiazol-5-yl)aniline] | 2.54 | – | –
N#Cc1cnn(C2CN(C(=O)Nc3ccc(-c4ccccc4)cc3)N=C2c2ccc(Cl)cc2)c1 (stereo not drawn) [Compound 1, N-(4-phenyl)-3-(4-chlorophenyl)-4-(4-cyanopyrazol-1-yl)-4,5-dihydro-1-pyrazolecarboxanilide] | 4.11 | 100% | –
N#Cc1cnn(CC(=O)c2ccc(Cl)cc2)c1 [2-(4-cyanopyrazol-1-yl)-4′-chloroacetophenone] | – | – | chromatographic logP [2, 5]: 2.2
CC(C)(C)c1nc(-c2ccc(NC(=O)N3CC(n4cc(C#N)cn4)C(c4ccc(Cl)cc4)=N3)cc2)no1 (stereo not drawn) [Compound 2, N-[4-(5-tert-butyl[1.2.4]oxadiazol-3-yl)-phenyl]-3-(4-chlorophenyl)-4-(4-cyanopyrazol-1-yl)-4,5-dihydro-1-pyrazolecarboxamide] | – | 100% | logP (pH2) ([2]; pH 2.3): 4.33; kill in % [3]: 100%
CC(C)(C)c1nnn(-c2ccc(N)cc2)n1 [4-(5-tert-butyltetrazol-2-yl)aniline] | 2.27 | – | –
CC(C)(C)n1nnc(-c2ccc(N)cc2)n1 [4-(2-tert-butyltetrazol-5-yl)aniline] | 1.69 | – | –

Now from value to compound, other results behind:

chromatographic logP [2, 4] | Compound | kill in % [1] | also measured
3.91 | CC(C)(C)n1nnc(-c2ccc(NC(=O)N3CC(n4cc(C#N)cn4)C(c4ccc(Cl)cc4)=N3)cc2)n1 (stereo not drawn) [Compound 4, N-[4-(2-tert-butyltetrazol-5-yl)phenyl]-3-(4-chlorophenyl)-4-(4-cyanopyrazol-1-yl)-4,5-dihydro-1-pyrazolecarboxamide] | 100% | kill in % [3]: 100%
4.27 | CC(C)(C)c1nnn(-c2ccc(NC(=O)N3CC(n4cc(C#N)cn4)C(c4ccc(Cl)cc4)=N3)cc2)n1 (stereo not drawn) [Compound 5, N-[4-(5-tert-butyltetrazol-2-yl)phenyl]-3-(4-chlorophenyl)-4-(4-cyanopyrazol-1-yl)-4,5-dihydro-1-pyrazolecarboxamide] | – | –
